Laboratory results published in the supplement of paper PMC10307832.

Compound: CC(C)N(CCCNC(=O)Nc1ccc(C(C)(C)C)cc1)C[C@H]1O[C@@H](n2ccc3c(N)ncnc32)[C@H](O)[C@@H]1O + CCNC(=O)c1noc(-c2cc(C(C)C)c(O)cc2O)c1-c1ccc(CN2CCOCC2)cc1 [Luminespib] (partner 0.01 µM)
Assay: relative viability (nuclei count vs DMSO), 5 days (fraction); higher = more cells survive
Conditions: first compound 8 µM
Procedure, shortened: (§1)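 Lung cancer cell lines, seeded in 1536-well plates, were treated the following day by pin tool with a single drug or with five library-drug doses (not always all listed) in √10 steps on top of a fixed anchor-drug dose. Cells were fixed and nuclei stained in one step after 5 days, and nuclei were counted. Relative viability is the nuclei count for treated wells divided by that for vehicle wells, reported as medians of duplicate plates.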

| Cell Line | relative viability |
| --- | --- |
| HCC-15 | 0.31 |
| NCI-H1793 | 0.203 |
| RERF-LC-KJ | 1.19 |
| EKVX | 0.846 |
| LC-2-ad | 1.03 |
| NCI-H1944 | 0.766 |
| NCI-H1975 | 0.192 |

Compound: CC(C)=CC[C@@H](O)C1=CC(=O)c2c(O)ccc(O)c2C1=O [Shikonin] + Cc1nc(NC(=O)N2CCC[C@H]2C(N)=O)sc1-c1ccnc(C(C)(C)C(F)(F)F)c1 [Alpelisib] (partner 2 µM)
Assay: as above
Conditions: first compound 0.01 µM
Procedure, shortened: as §1

| Cell Line | relative viability |
| --- | --- |
| HARA | 0.871 |
| NCI-H441 | 1.14 |
| LCLC-97TM1 | 0.246 |
| NCI-H2023 | 0.579 |
| A-427 | 1.12 |
| NCI-H460 | 0.522 |
| NCI-H838 | 1.02 |
| NCI-H1734 | 0.7 |
| NCI-H596 | 0.464 |
| NCI-H2405 | 0.742 |
| NCI-H1395 | 1.14 |
| 201T | 0.941 |
| NCI-H1915 | 1.09 |
| HCC-827 | 0.996 |
| LXF-289 | 1.12 |
| NCI-H2347 | 0.992 |
| NCI-H661 | 0.676 |

| Cell Line | relative viability |
| --- | --- |
| CAL-12T | 1.14 |
| NCI-H1651 | 0.921 |
| EPLC-272H | 0.964 |
| NCI-H23 | 0.76 |
| NCI-H1792 | 0.776 |
| NCI-H1355 | 0.819 |
| NCI-H322M | 0.73 |
| NCI-H1437 | 0.987 |
| NCI-H1755 | 1.02 |
| NCI-H2085 | 0.986 |
| HCC-15 | 0.881 |
| NCI-H1793 | 0.863 |
| RERF-LC-KJ | 0.78 |
| EKVX | 0.863 |
| LC-2-ad | 0.921 |
| NCI-H1944 | 0.747 |
| NCI-H1975 | 0.676 |

Same assay, conditions: first compound 0.1 µM

| Cell Line | relative viability |
| --- | --- |
| HARA | 0.871 |
| NCI-H441 | 0.874 |
| LCLC-97TM1 | 0.238 |
| NCI-H2023 | 0.709 |
| A-427 | 1.2 |
| NCI-H460 | 0.841 |
| NCI-H838 | 1.18 |
| NCI-H1734 | 0.722 |
| NCI-H596 | 0.481 |
| NCI-H2405 | 0.798 |
| NCI-H1395 | 1.16 |
| 201T | 1.11 |
| NCI-H1915 | 1.12 |
| HCC-827 | 1.11 |
| LXF-289 | 0.963 |
| NCI-H2347 | 0.99 |
| NCI-H661 | 0.718 |

| Cell Line | relative viability |
| --- | --- |
| CAL-12T | 1.13 |
| NCI-H1651 | 0.98 |
| EPLC-272H | 1.06 |
| NCI-H23 | 0.65 |
| NCI-H1792 | 0.557 |
| NCI-H1355 | 0.823 |
| NCI-H322M | 0.77 |
| NCI-H1437 | 1.14 |
| NCI-H1755 | 0.946 |
| NCI-H2085 | 0.913 |
| HCC-15 | 0.949 |
| NCI-H1793 | 0.779 |
| RERF-LC-KJ | 0.732 |
| EKVX | 0.973 |
| LC-2-ad | 0.944 |
| NCI-H1944 | 0.936 |
| NCI-H1975 | 0.712 |

Same assay, conditions: first compound 0.3162 µM

| Cell Line | relative viability |
| --- | --- |
| HARA | 0.923 |
| NCI-H441 | 0.508 |
| LCLC-97TM1 | 0.25 |
| NCI-H2023 | 0.589 |
| A-427 | 1.07 |
| NCI-H460 | 0.618 |
| NCI-H838 | 1.04 |
| NCI-H1734 | 0.788 |
| NCI-H596 | 0.543 |
| NCI-H2405 | 0.864 |
| NCI-H1395 | 0.973 |
| 201T | 0.997 |
| NCI-H1915 | 1.13 |
| HCC-827 | 0.994 |
| LXF-289 | 1.02 |
| NCI-H2347 | 0.962 |
| NCI-H661 | 0.893 |

| Cell Line | relative viability |
| --- | --- |
| CAL-12T | 1.19 |
| NCI-H1651 | 1 |
| EPLC-272H | 0.946 |
| NCI-H23 | 0.804 |
| NCI-H1792 | 0.786 |
| NCI-H1355 | 0.943 |
| NCI-H322M | 0.856 |
| NCI-H1437 | 0.987 |
| NCI-H1755 | 1.07 |
| NCI-H2085 | 0.905 |
| HCC-15 | 1.04 |
| NCI-H1793 | 0.754 |
| RERF-LC-KJ | 0.798 |
| EKVX | 1.07 |
| LC-2-ad | 0.925 |
| NCI-H1944 | 0.992 |
| NCI-H1975 | 0.702 |

Same assay, conditions: first compound 1 µM

| Cell Line | relative viability |
| --- | --- |
| HARA | 0.917 |
| NCI-H441 | 0.729 |
| LCLC-97TM1 | 0.292 |
| NCI-H2023 | 0.598 |
| A-427 | 1.13 |
| NCI-H460 | 0.569 |
| NCI-H838 | 1.21 |
| NCI-H1734 | 0.663 |
| NCI-H596 | 0.504 |
| NCI-H2405 | 0.761 |
| NCI-H1395 | 1 |
| 201T | 1.02 |
| NCI-H1915 | 1.04 |
| HCC-827 | 0.812 |
| LXF-289 | 1.03 |
| NCI-H2347 | 1.03 |
| NCI-H661 | 0.792 |

| Cell Line | relative viability |
| --- | --- |
| CAL-12T | 1.2 |
| NCI-H1651 | 1.07 |
| EPLC-272H | 0.962 |
| NCI-H23 | 0.659 |
| NCI-H1792 | 0.727 |
| NCI-H1355 | 0.927 |
| NCI-H322M | 0.857 |
| NCI-H1437 | 1.1 |
| NCI-H1755 | 0.97 |
| NCI-H2085 | 0.685 |
| HCC-15 | 0.912 |
| NCI-H1793 | 0.722 |
| RERF-LC-KJ | 0.787 |
| EKVX | 0.846 |
| LC-2-ad | 0.912 |
| NCI-H1944 | 0.909 |
| NCI-H1975 | 0.538 |

Compound: CC(C)N(CCCNC(=O)Nc1ccc(C(C)(C)C)cc1)C[C@H]1O[C@@H](n2ccc3c(N)ncnc32)[C@H](O)[C@@H]1O + C[C@]1(O)C[C@@H](c2nc(-c3ccc4ccc(-c5ccccc5)nc4c3)c3c(N)nccn32)C1 [Linsitinib] (partner 1 µM)
Assay: as above
Conditions: first compound 0.08 µM
Procedure, shortened: as §1

| Cell Line | relative viability |
| --- | --- |
| HARA | 0.885 |
| NCI-H441 | 0.565 |
| LCLC-97TM1 | 0.195 |
| NCI-H2023 | 0.661 |
| A-427 | 1.18 |
| NCI-H460 | 0.722 |
| NCI-H838 | 0.938 |
| NCI-H1734 | 0.833 |
| NCI-H596 | 0.991 |
| NCI-H2405 | 0.901 |
| NCI-H1395 | 1.09 |
| 201T | 1.01 |
| NCI-H1915 | 1.13 |
| HCC-827 | 0.936 |
